Test results: patent US20240285594A1, “COMPOSITIONS AND METHODS FOR TREATING PAIN IN ANIMALS” (North Carolina State University, priority 2023, published 2024)
Values joined by “and” are separate entries in the source; they are usually repeats but may differ in a detail not shown here. Equal entries are not always repeated. “Also recorded” adds a separate entry of the source. Where two headings read alike, the source gives them in different places.

Key:
[1] = cited from earlier work; for mitigation of pain associated with castration (and tail docking): earlier published studies in pigs, route as in the sentence
[2] = Plasma and interstitial fluid concentrations after intravenous or intranasal flunixin meglumine in cattle; assay type: in vivo
Method: FIG. 10: Plasma concentration versus time curve for individual cattle (n=4) following a single intravenous dose of flunixin meglumine at 2.2 mg/kg. Samples were simultaneously collected from the opposite jugular vein (via pre-placed catheter) and a pre-placed portal vein catheter. Some variability is observed between sampling sites (jugular vs. portal vein) but overall concentrations and trend are similar over time.
FIG. 11: Plasma concentration versus time curve for individual cattle (n=4) following a single intranasal dose of flunixin meglumine at 2.2 mg/kg. Samples were simultaneously collected from a jugular vein catheter and a pre-placed portal vein catheter. Overall, plasma concentrations are lower following intranasal administration, and the jugular sampling site overestimates systemic concentrations especially following the first 1 hour after administration.
FIG. 12: Interstitial fluid concentration versus time curve for individual cattle (n=4) following a single intranasal (n=2) or intravenous (n=2) dose of flunixin meglumine at 2.2 mg/kg. Samples were collected using an in vivo ultrafiltration collection device and represent tissue unbound concentrations of flunixin. There is systemic absorption following both intravenous and intranasal routes of administration, with tissue concentrations of flunixin detected for at least 24 hours following a single dose.

[3] = female, Yorkshire cross, pig, in vivo, 2.2 mg/kg
Method: (§1) Six female Yorkshire cross grower pigs approximately 8 weeks of age with no history of flunixin administration in a 30-day period were sourced from a production farm and enrolled in the study. The pigs were determined to be healthy by veterinary physical examination and pigs initially weighed between 18.0-22.0 kg. The pigs were individually housed in climate-controlled rooms with a 12:12 light dark cycle at the North Carolina State University College of Veterinary Medicine to prevent cross contamination between pigs and damage to jugular catheters. The pens had non-slip flooring, allowed the pigs to move freely, provided enrichment, and were cleaned at least twice daily. The pigs had ad libitum access to water via a nipple drinker and were fed 0.5 quarts of Nature's Match twice daily. […] From the time of arrival until the end of the study, the pigs were monitored at least twice daily for general appearance, attitude, appetite, and wellbeing.
(§2) To facilitate jugular catheter placement, the pigs were sedated with Telazol®, reconstituted with ketamine and xylazine as previously described, intubated, and maintained on gas isoflurane anesthesia. A 22-gauge, 10 cm intravenous catheter (MILA, International, Inc., Florence, KY, USA) was placed into the jugular vein using sterile technique. It was sutured in place with 3-0 nylon and covered in Ioban™ (3M, St. Paul, MN, USA) to prevent damage. The pigs wore custom jackets throughout the study to protect the catheters and an extension set was attached to allow for easy catheter access and restraint-free blood collection.
(§3) All pigs were randomized to determine the first administration route. Group 1 (n=3 pigs) and Group 2 (n=3 pigs) were used in a cross-over design and received 2.2 mg/kg flunixin (Banamine®-S, Merck Animal Health, Madison, NJ, USA) by either the IM or IN route. Following a 5-day washout period, the pigs were administered 2.2 mg/kg flunixin via the opposite route. IN administration was completed using a MAD600 MADgic laryngo-tracheal mucosal atomization device (Teleflex Medical, Morrisville, NC, USA). The luer lock syringe was attached to this device and drug was placed into the nostril. Before administration, 0.22 mL of the drug was added to the device to account for dead space volume. After the IN dose, pigs were encouraged to keep their heads raised for approximately 10 seconds to prevent leakage of the drug out of the nasal cavity. Intramuscular administration was performed in the omotransversarius muscle using a 20G needle.
(§4) Blood samples were collected at 0 (pre-treatment), 0.16, 0.33, 0.5, 0.75, 1, 1.5, 2, 3, 4, 6, 8, 12, 18, 24, 36, 48, and 60 hours post treatment. To avoid heparin contamination in samples, at least 1 mL of blood was collected as a purge sample before 1-2 mL of blood was collected and placed into lithium heparin tubes (BD Vacutainer, Franklin Lakes, NJ, USA). The purge blood was injected back into the catheter before the catheter was flushed with 3-4 mL of heparinized saline to prevent coagulation. The blood tubes were placed on ice for no more than 1 hour before they were processed. Plasma was separated by centrifugation at 3500×g for 10 minutes at 4° C., equally split between two cryovials, mixed, and stored at −80° C. until analysis.
(§5) To prepare samples, 100 μL of plasma was pipetted into a clean borosilicate glass tube (disposable culture tubes, CWR). To pretreat the plasma, 500 μL of 4% phosphoric acid prepared in water was added to each tube. Solid phase extraction was performed on an oasis prime HLB 96 well μElution plate (Waters Corporation, Milford, MA, USA). The plate was prepared by conditioning the plate with 500 μL of methanol followed by 500 μL of ultrapure water.

in vivo = settings: female, Yorkshire cross, pig, plasma, 2.2 mg/kg
Method: as §1, §2, §3, §4, §5

[4] = Cross-over plasma pharmacokinetics of intranasal versus intramuscular flunixin;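 note: grower pigs about 8 weeks old weighing 18.0-22.0 kg, randomized cross-over of both routes separated by a 5-day washout, blood taken via jugular vein catheter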
Method: as §1, §2, §3, §4, §5

[5] = IM flunixin 2.2 mg/kg compared to ketoprofen 3 mg/kg and meloxicam 0.4 mg/kg; swine; cited from earlier work
[6] = Observations and limited gross necropsy of the nasal cavity after IN or IM flunixin; assay type: in vivo, grower pigs
Method: Six female Yorkshire cross grower pigs approximately 8 weeks of age with no history of flunixin administration in a 30-day period were sourced from a production farm and enrolled in the study. The pigs were determined to be healthy by veterinary physical examination and pigs initially weighed between 18.0-22.0 kg. The pigs were individually housed in climate-controlled rooms with a 12:12 light dark cycle at the North Carolina State University College of Veterinary Medicine to prevent cross contamination between pigs and damage to jugular catheters. The pens had non-slip flooring, allowed the pigs to move freely, provided enrichment, and were cleaned at least twice daily. The pigs had ad libitum access to water via a nipple drinker and were fed 0.5 quarts of Nature's Match twice daily. The pigs acclimated for 1-2 days before they were anesthetized for jugular catheter placement as described in the pilot study above and were provided approximately 24 hours to recover from anesthesia before the study began. From the time of arrival until the end of the study, the pigs were monitored at least twice daily for general appearance, attitude, appetite, and wellbeing.

cortisol = assay: Serum cortisol after surgical or sham castration of piglets (Part I, physiological assessment); assay type: in vivo
Method: A total of 197 Large White×Duroc cross male piglets from 35 litters were enrolled in the study (Table 1). Piglets were individually identified using ear tags (Allflex Global Piglet ear tags, Allflex Livestock Intelligence, Madison, WI), weighed and randomly allocated to one of eight treatment groups (FIG. 1).
Lidocaine was buffered by mixing 2 ml of 8.4% Sodium Bicarbonate to 20 ml of 2% lidocaine HCl injectable solution to achieve a pH of 6.8 (Lidocaine Hydrochloride, Covetrus, Dublin, Ohio, US). […] Piglets were held by both rear legs by one caretaker with the abdomen facing the individual administrating treatment. Buffered lidocaine was injected intra-inguinally (Picture 1) by a second caretaker using a ½ inch needle (Ideal® D3 20 Gauge, Neogen, Lansing, MI) inserted into a syringe (Prima Tech® 2 cc Bottle Mount Vaccinator, Prima Tech USA, Kenansville, NC). A total of 1.5 ml of buffered lidocaine per injection site was administered intramuscularly (IM) into each inguinal canal (left and right) at a 40-degree angle 5-7 cm from the scrotum and 2-3 cm from the abdominal wall. Piglets enrolled in the control treatment (C, S, CF, SF−T1: (C) Castration plus physiological saline (IM and IN; n=25); T2: (S) Sham plus physiological saline (IM and IN; n=25); T5: (CF) Castration plus flunixin (IN; n=25); T6: (SF) Sham plus flunixin (IN; n=24)) were handled in an identical manner and 1.5 ml of sterile saline was injected in the same two locations as described previously.
Immediately following intra-inguinal injection, piglets enrolled in the FM treatment groups were held in sternal recumbency by one individual and 2.2 mg/kg (Banamine®, Merck Animal Health, Madison, NJ, US) was administered in one nostril using was a MAD® nasal intranasal mucosal atomization device (Telefex Incorporated, Wayne, PA, US) attached to a Prima Tech® 0.5 cc bottle mount vaccinator. The same individual administered the treatment by gently holding the piglet's snout using their non-dominant hand to steady the head and administered the drug with the other hand. Piglets in the control group were handled in the same manner in an equivalent volume of 0.2 ml of sterile saline was administered as described above.
Castration was performed by one trained caretaker from the farm. Piglets were picked up, individually held by both hind legs with head down, and two vertical incisions were made through the skin of the scrotum over each testicle using a scalpel blade. Once the incisions were made, testicles were exposed, spermatic cords cut, and testicles were completely removed by traction. A sham castration was performed to mimic similar handling conditions in which piglets were picked up, held in the same manner, and had pressure applied to the scrotal area by the same individual responsible for castration.
Blood was collected 24 h prior to (−24 h), 1 h (1 h), and 24 h post castration (24 h, FIG. 2). Blood samples were collected using the technique described in other studies. The orbital sinus cavity was punctured using an Excel® disposable hypodermic needle 20G (Exel International, Quebec, Canada) and deposited into a 4 ml BD® red vacutainer serum tube (Med Vet International, Mettawa, IL). All tubes were maintained in a cooler and centrifuged (2,000×g for 15 min at 4° C.) no more than eight hours post-collection to separate serum. […]
Serum cortisol concentrations were quantified using a commercially available EIA kit (Arbor Assays DetectX Cortisol EIA Kit, Product #K003). […]

[7] = intramuscular 2.2 mg/kg, six grower pigs, plasma, median
[8] = intranasal 2.2 mg/kg, six grower pigs, plasma, median

**Q.** With Cc1c(Nc2ncccc2C(=O)O)cccc1C(F)(F)F [flunixin meglumine] as the molecule, how does the “numerical decrease of cortisol concentrations” value ([1]; FM topically 24 h prior to castration vs saline-treated piglets, not significant) read?
**A.** The value was “more than 30%”.

**Q.** What about the “mitigation of pain associated with castration (and tail docking)” value [1] of the same molecule?
**A.** Its value is “effective”.

**Q.** What about the “mitigation of pain associated with castration (and tail docking)” value ([1]; listed as flunixin) of the same molecule?
**A.** The value was “more effective; also recorded: superior”.

**Q.** What about the total pain scores ([1]; immediately post castration, transdermal flunixin treated piglets, castrated piglets 4.9, video observation) of the same molecule?
**A.** Its total pain scores is 3.1.

**Q.** And the cortisol concentrations ([1]; intramuscular FM, 2 h post-castration, vs castrated non-treated control, Nixon 2021)?
**A.** The cortisol concentrations was “decreased cortisol concentrations”.

**Q.** And the rescue analgesia intervention ([1]; transdermal FM 24 h before castration, control pigs 54%)?
**A.** Its rescue analgesia intervention is 29%.

**Q.** What about the plasma concentrations ([2]; cattle (n=4), single intranasal dose 2.2 mg/kg, compared with intravenous) of the same molecule?
**A.** The plasma concentrations was “lower”.

**Q.** What about the “time tissue (interstitial fluid, unbound) concentrations were detected” value ([2]; cattle, single intranasal or intravenous dose 2.2 mg/kg) of the same molecule?
**A.** The value was “at least 24 hours”.

**Q.** And the “time flunixin was detectable in plasma post-administration” value [3]?
**A.** The value was “up to 60 hours”.

**Q.** What about the AUC(0-inf) (in vivo; im) of the same molecule?
**A.** The AUC(0-inf) was 6900 ng·h/mL.

**Q.** What about the AUC(0-t) (in vivo; im) of the same molecule?
**A.** Its AUC(0-t) is 6900 ng·h/mL.

**Q.** And the CL/F (in vivo; im)?
**A.** The CL/F was 5 mL/min/kg.

**Q.** And the Cmax (in vivo; im)?
**A.** The Cmax was 4000 ng/mL.

**Q.** And the Tmax (in vivo; im)?
**A.** The Tmax was 12 min.

**Q.** What about the Vd/F (in vivo; im) of the same molecule?
**A.** Its Vd/F is 3.2 L/kg.

**Q.** What about the AUC(0-t) (in vivo; inhaled or intranasal) of the same molecule?
**A.** The AUC(0-t) was 4800 ng·h/mL.

**Q.** What about the CL/F (in vivo; inhaled or intranasal) of the same molecule?
**A.** The CL/F was 8.33 mL/min/kg.

**Q.** And the Cmax (in vivo; inhaled or intranasal)?
**A.** The Cmax was 2700 ng/mL.

**Q.** What about the Tmax (in vivo; inhaled or intranasal) of the same molecule?
**A.** Its Tmax is 12 min.

**Q.** What about the Vd/F (in vivo; inhaled or intranasal) of the same molecule?
**A.** Its Vd/F is 5.4 L/kg.

**Q.** And the bioavailability (in vivo; other: intranasal)?
**A.** Its bioavailability is 88.5%.

**Q.** What about the “AUCinf of IM administration” value ([4]; 2.2 mg/kg IM, individual grower pig (Pig # 1-6, one line per pig), unit not given) of the same molecule?
**A.** Its value is 7.63 and 6.25 and 7.82 and 8.54 and 5.29 and 4.99.

**Q.** What about the “AUCinf of IN administration” value ([4]; 2.2 mg/kg IN, individual grower pig (Pig # 1-6, one line per pig), unit not given) of the same molecule?
**A.** The value was 2.98 and 8.90 and 7.07 and 4.98 and 4.74.

**Q.** What about the “AUC Extrap” value [4, 7] of the same molecule?
**A.** The value was 0.3%.

**Q.** And the λz [4, 7]?
**A.** Its λz is 0.1 h⁻¹.

**Q.** What about the “AUC Extrap” value [4, 8] of the same molecule?
**A.** Its value is 0.5%.

**Q.** What about the AUCinf [4, 8] of the same molecule?
**A.** The AUCinf was 4900 ng·h/mL.

**Q.** And the HLλz [4, 8]?
**A.** Its HLλz is 7.4 h.

**Q.** And the λz [4, 8]?
**A.** The λz was 0.09 h⁻¹.

**Q.** What about the bioavailability [5] of the same molecule?
**A.** Its bioavailability is “higher bioavailability”.

**Q.** What about the terminal half-life [5] of the same molecule?
**A.** The terminal half-life was “longer terminal half-life”.

**Q.** And the “adverse effects on the pigs” value ([6]; following IN or IM administration, 2.2 mg/kg)?
**A.** Its value is “No major adverse effects”.

**Q.** And the “limited gross necropsy of the nasal cavity” value ([6]; following euthanasia, after IN administration)?
**A.** Its value is “no negative effects”.

**Q.** And the cortisol concentrations (cortisol; 1 h, sham castrated piglets (SF and SLF))?
**A.** The cortisol concentrations was “lowest cortisol concentrations”.

**Q.** What about the cortisol concentrations (cortisol; 1 h post-castration, castrated piglets, compared to C (saline) and CL, FM 2.2 mg/kg intranasal, buffered lidocaine intra-inguinal, listed as FM) of the same molecule?
**A.** Its cortisol concentrations is “lower cortisol concentrations; also recorded: decreased cortisol concentrations; also recorded: effectively reduce”.

**Q.** And the cortisol concentrations (cortisol; 24 h post-castration, between treatments)?
**A.** The cortisol concentrations was “not effective”.
